This passage reports IC50 results from patent US10294207B2, “Pyrazole derivatives as TNIK, IKKϵ and TBK1 inhibitor and pharmaceutical composition comprising same” (GREEN CROSS CORPORATION, priority 2015, dated 2019).

The target of experiment [1] is T1, IKKε (Homo sapiens, UniProt Q14164).
T1 construct: purchased Invitrogen PR8031B
T1 sequence (Q14164 1-716): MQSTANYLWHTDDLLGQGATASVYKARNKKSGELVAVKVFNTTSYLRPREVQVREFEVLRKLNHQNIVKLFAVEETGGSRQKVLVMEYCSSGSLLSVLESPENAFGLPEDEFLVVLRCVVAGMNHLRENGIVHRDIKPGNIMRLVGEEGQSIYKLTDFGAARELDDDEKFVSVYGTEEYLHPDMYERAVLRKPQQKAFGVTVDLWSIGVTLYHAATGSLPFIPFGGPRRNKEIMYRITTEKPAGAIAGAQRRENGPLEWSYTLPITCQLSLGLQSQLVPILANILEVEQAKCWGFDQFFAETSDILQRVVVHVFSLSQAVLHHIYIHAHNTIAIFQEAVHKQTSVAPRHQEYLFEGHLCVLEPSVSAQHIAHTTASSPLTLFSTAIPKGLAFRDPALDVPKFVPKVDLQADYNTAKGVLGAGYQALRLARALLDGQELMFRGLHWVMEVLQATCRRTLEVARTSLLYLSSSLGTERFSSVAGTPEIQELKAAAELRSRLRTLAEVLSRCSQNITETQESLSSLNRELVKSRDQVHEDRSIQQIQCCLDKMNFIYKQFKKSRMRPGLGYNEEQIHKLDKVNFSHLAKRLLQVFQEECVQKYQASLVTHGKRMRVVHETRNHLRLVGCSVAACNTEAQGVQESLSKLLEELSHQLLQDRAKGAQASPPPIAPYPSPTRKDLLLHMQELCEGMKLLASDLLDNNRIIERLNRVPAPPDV
Put plainly: IKKε inhibition, ADP-Glo Kinase Assay. The class given is biochemical. To be noted: luminometer. The protocol:
(§1) Inhibition activities on TNIK, IKKε and TBK1 were evaluated using the compounds of Examples 1 to 254.
(§2) The inhibition activities on TNIK, IKKε and TBK1 were measured by a luminometer, TNIK/IKKε/TBK1 Kinase Enzyme System (Promega, Ca# V4158; Invitrogen, PR8031B, Promega, Ca# V3991) and ADP-Glo Kinase Assay using ADP-Glo™ Kinase Analysis Kit (Promega, Ca# V9101) and a kinase reaction buffer [40 mM Tris(pH 7.5), 20 mM MgCl2, 0.1 mg/mL BSA] in accordance with the manufacturer's protocol.
Background: ADP-Glo first removes unused ATP, then detects ADP through luciferase.

The target of experiment [2] is T2, TBK1 (Homo sapiens, UniProt Q9UHD2).
T2 construct: purchased Promega V3991
T2 sequence (Q9UHD2 1-729): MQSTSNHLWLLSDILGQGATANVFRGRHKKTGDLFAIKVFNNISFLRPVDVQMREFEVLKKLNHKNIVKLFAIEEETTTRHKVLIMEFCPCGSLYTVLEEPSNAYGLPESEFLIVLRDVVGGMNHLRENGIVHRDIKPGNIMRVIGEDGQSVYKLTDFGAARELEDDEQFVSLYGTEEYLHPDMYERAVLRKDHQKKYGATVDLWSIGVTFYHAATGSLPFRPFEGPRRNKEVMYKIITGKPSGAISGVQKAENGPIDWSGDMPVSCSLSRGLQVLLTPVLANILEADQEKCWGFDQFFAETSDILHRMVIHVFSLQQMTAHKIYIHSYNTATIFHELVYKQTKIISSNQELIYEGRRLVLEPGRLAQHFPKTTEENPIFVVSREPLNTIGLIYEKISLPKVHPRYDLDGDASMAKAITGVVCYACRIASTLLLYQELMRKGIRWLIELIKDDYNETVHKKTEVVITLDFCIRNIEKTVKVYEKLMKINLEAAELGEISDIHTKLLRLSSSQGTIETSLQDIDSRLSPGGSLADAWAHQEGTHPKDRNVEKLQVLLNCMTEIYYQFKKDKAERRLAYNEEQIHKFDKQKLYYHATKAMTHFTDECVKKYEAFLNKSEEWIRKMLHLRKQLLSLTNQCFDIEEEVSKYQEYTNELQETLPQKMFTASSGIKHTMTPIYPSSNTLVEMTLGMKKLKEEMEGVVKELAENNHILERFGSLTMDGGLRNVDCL
Put plainly: TBK1 inhibition, ADP-Glo Kinase Assay. The class given is biochemical. To be noted: luminometer. The protocol:
as §1, §2

SMILES strings stand for the structures. Structures can show the parent of a compound that is named as a salt. A value given as a limit tells only on which side of the number the result lay.

For orientation: IC50 means the concentration needed to halve the response being measured. A high value points to lower potency. Consider `COc1ccc(C(=O)Nc2n[nH]c3ccc(C(=O)NCc4ccco4)cc23)cc1` [Example 2, N-(Furan-2-yl-methyl)-3-(4-methoxybenzamido)-1H-indazole-5-carboxamide], for which the results for the IC50 in experiment [1] and in experiment [2] were 0.13 µM and 0.037 µM, respectively.

Regarding `COc1ccc(C(=O)Nc2n[nH]c3ccc(C(=O)NCc4cccs4)cc23)cc1` [Example 3, 3-(4-Methoxybenzamido)-N-(thiophen-2-ylmethyl)-1H-indazole-5-carboxamide], the IC50 in experiment [1] was 0.11 µM; in experiment [2], 0.038 µM.

In the case of `Cn1cc(C(=O)Nc2n[nH]c3ccc(C(=O)NCc4cccs4)cc23)cn1` [Example 7, 3-(1-Methyl-1H-pyrazole-4-carboxamido)-N-(thiophen-2-ylmethyl)-1H-indazole-5-carboxamide], the IC50 in experiment [1] stood at 0.25 µM; in experiment [2], 0.16 µM.

For the compound `COc1ccc(C(=O)Nc2n[nH]c3ccc(C(=O)NCc4cccs4)cc23)nc1` [Example 8, 3-(5-Methoxypicolinamido)-N-(thiophen-2-ylmethyl)-1H-indazole-5-carboxamide Hydrochloride], the figures for the IC50 in experiment [1] and in experiment [2] were 0.33 µM and 0.082 µM, respectively.

On to `O=C(Nc1n[nH]c2ccc(C(=O)NC3(c4cccs4)CC3)cc12)c1ccc(F)cc1` [Example 15, 3-(4-Fluorobenzamido)-N-(1-(thiophen-2-yl)cyclopropyl)-1H-indazole-5-carboxamide], for which the IC50 in experiment [1] turned out to be 0.055 µM; in experiment [2] it was 0.025 µM.

For the compound `N#CC1(NC(=O)c2ccc3[nH]nc(NC(=O)c4ccc(F)cc4)c3c2)CC1` [Example 16, N-(1-Cyanocyclopropyl)-3-(4-fluorobenzamido)-1H-indazole-5-carboxamide], the IC50 in experiment [1] was determined as 0.91 µM; in experiment [2], 0.39 µM.

As for `CCCC(NC(=O)c1ccc2[nH]nc(NC(=O)c3ccc(F)cc3)c2c1)c1cccs1` (stereo not shown) [Example 18, 3-(4-Fluorobenzamido)-N-(1-(thiophen-2-yl)butyl)-1H-indazole-5-carboxamide], the IC50 is 1.23 µM in experiment [1] and 0.21 µM in experiment [2].

In the case of `Cc1ccc(CNC(=O)c2ccc3[nH]nc(NC(=O)c4ccc(F)cc4)c3c2)s1` [Example 19, 3-(4-Fluorobenzamido)-N-((5-methylthiophen-2-yl)methyl)-1H-indazole-5-carboxamide], the IC50 was found to be 2.91 µM in experiment [1] and 0.49 µM in experiment [2].

`CC(C)(NC(=O)c1ccc2[nH]nc(NC(=O)c3ccc(F)cc3)c2c1)c1ccccc1` [Example 20, 3-(4-Fluorobenzamido)-N-(2-phenylpropan-2-yl)-1H-indazole-5-carboxamide]: the IC50 in experiment [1] turned out to be 0.35 µM; in experiment [2], 0.31 µM.

With `O=C(NCc1ccc(C(F)(F)F)cc1)c1ccc2[nH]nc(NC(=O)c3ccc(F)cc3)c2c1` [Example 21, 3-(4-Fluorobenzamido)-N-(4-(trifluoromethyl)benzyl)-1H-indazole-5-carboxamide], the half-maximal inhibitory concentration (IC50) in experiment [1] and in experiment [2] was greater than 10 µM throughout.

Consider `O=C(NCC1CC1)c1ccc2[nH]nc(NC(=O)c3ccc(F)cc3)c2c1` [Example 23, N-(Cyclopropylmethyl)-3-(4-fluorobenzamido)-1H-indazole-5-carboxamide], for which the results for the IC50 in experiment [1] and in experiment [2] were 5.58 µM and 1.41 µM, respectively.

As to `CCCCNC(=O)c1ccc2[nH]nc(NC(=O)c3ccc(F)cc3)c2c1` [Example 24, N-Butyl-3-(4-fluorobenzamido)-1H-indazole-5-carboxamide], the IC50 amounted to 2.46 µM in experiment [1] and 0.66 µM in experiment [2].

With `CC(C)CCNC(=O)c1ccc2[nH]nc(NC(=O)c3ccc(F)cc3)c2c1` [Example 25, 3-(4-Fluorobenzamido)-N-isopentyl-1H-indazole-5-carboxamide], the IC50 in experiment [1] turned out to be 5.87 µM; in experiment [2], 0.42 µM.

Turning to `O=C(NCc1cncs1)c1ccc2[nH]nc(NC(=O)c3ccc(F)cc3)c2c1` [Example 27, 3-(4-Fluorobenzamido)-N-(thiazol-5-ylmethyl)-1H-indazole-5-carboxamide 2,2,2-trifluoroacetate], the IC50 in experiment [1] was determined as 0.36 µM; in experiment [2] it was 0.2 µM.

`O=C(NCc1ccccn1)c1ccc2[nH]nc(NC(=O)c3ccc(F)cc3)c2c1` [Example 28, 3-(4-Fluorobenzamido)-N-(pyridin-2-ylmethyl)-1H-indazole-5-carboxamide2,2,2-trifluoroacetate]: the values for the IC50 in experiment [1] and in experiment [2] were 2.62 µM and 0.73 µM, respectively.

With `CCC(NCc1ccc2[nH]nc(NC(=O)c3ccc(F)cc3)c2c1)c1cccs1` (stereo not shown) [Example 32], the IC50 in experiment [1] and in experiment [2] was greater than 10 µM in each case.

For the compound `CC(C)CC(NC(=O)c1ccc2[nH]nc(NC(=O)c3ccc(F)cc3)c2c1)c1cccs1` (stereo not shown) [Example 33, 3-(4-Fluorobenzamido)-N-(3-methyl-1-(thiophen-2-yl)butyl)-1H-indazole-5-carboxamide], the values for the IC50 in experiment [1] and in experiment [2] were 6.36 µM and 4.69 µM, respectively.

Take `CCC(C)(NC(=O)c1ccc2[nH]nc(NC(=O)c3ccc(F)cc3)c2c1)c1cccs1` (stereo not shown) [Example 34, 3-(4-Fluorobenzamido)-N-(2-(thiophen-2-yl)butan-2-yl)-1H-indazole-5-carboxamide]: the IC50 in experiment [1] is 1.74 µM; in experiment [2] it was 0.58 µM.

Take `O=C(NCc1cccs1)c1ccc2[nH]nc(NC(=O)c3ccc(F)cc3F)c2c1` [Example 35, 3-(2,4-Difluorobenzamido)-N-(thiophen-2-ylmethyl)-1H-indazole-5-carboxamide]: the IC50 in experiment [1] is 0.93 µM; in experiment [2] it was 0.28 µM.

As to `CN1CCN(c2ccc(C(=O)Nc3n[nH]c4ccc(C(=O)NCc5ccccc5)cc34)cc2)CC1` [Example 40, N-Benzyl-3-(4-(4-methylpiperazin-1-yl)benzamido)-1H-indazole-5-carboxamide], the half-inhibitory concentration (IC50) in experiment [1] turned out to be 0.0089 µM; in experiment [2] it was 0.00094 µM.

For `CCC(NC(=O)c1ccc2[nH]nc(NC(=O)c3ccc(N4CCNCC4)cc3)c2c1)c1ccccc1` (stereo not shown) [Example 41, N-(1-Phenylpropyl)-3-(4-(piperazin-1-yl)benzamido)-1H-indazole-5-carboxamide], the IC50 amounted to 0.047 µM in experiment [1] and 0.0039 µM in experiment [2].

For `CC(NC(=O)c1ccc2[nH]nc(NC(=O)c3ccc(N4CCOCC4)cc3)c2c1)c1cccs1` (stereo not shown) [Example 43, 3-(4-Morpholinobenzamido)-N-(1-(thiophen-2-yl)ethyl)-1H-indazole-5-carboxamide], the half-inhibitory concentration (IC50) in experiment [1] amounted to 0.0049 µM; in experiment [2] it was 0.0021 µM.

Take `CC(NC(=O)c1ccc2[nH]nc(NC(=O)c3ccc(N4CCN(C)CC4)cc3)c2c1)c1cccs1` (stereo not shown) [Example 44, 3-(4-(4-Methylpiperazin-1-yl)benzamido)-N-(1-(thiophen-2-yl)ethyl)-1H-indazole-5-carboxamide]: the IC50 is 0.0031 µM in experiment [1] and 0.0035 µM in experiment [2].

Consider `CN1CCN(c2ccc(C(=O)Nc3n[nH]c4ccc(C(=O)NC(CO)c5cccs5)cc34)cc2)CC1` (stereo not shown) [Example 45, N-(2-Hydroxy-1-(thiophen-2-yl)ethyl)-3-(4-(4-methylpiperazin-1-yl)benzamido)-1H-indazole-5-carboxamide], for which the IC50 in experiment [1] is 0.014 µM; in experiment [2], 0.0021 µM.

As to `CC(C)(C)OC(=O)N1CCC[C@H]1C(=O)Nc1ccc(C(=O)Nc2n[nH]c3ccc(C(=O)NCc4cccs4)cc23)cc1` [Example 210, tert-Butyl (S)-2-((4-((5-((thiophen-2-ylmethyl)carbamoyl)-1H-indazol-3-yl)carbamoyl)phenyl)carbamoyl)pyrrolidine-1-carboxylate], in experiment [2], half-maximal inhibition (IC50) required 0.12 µM.
